{
  "source": "paper PMC3914206",
  "key": {"[1]": {"target": "T1, panel of 442 kinases (Homo sapiens, UniProt O43318)", "T1 construct": "purchased KINOMEscan", "T1 sequence (O43318 1-606)": "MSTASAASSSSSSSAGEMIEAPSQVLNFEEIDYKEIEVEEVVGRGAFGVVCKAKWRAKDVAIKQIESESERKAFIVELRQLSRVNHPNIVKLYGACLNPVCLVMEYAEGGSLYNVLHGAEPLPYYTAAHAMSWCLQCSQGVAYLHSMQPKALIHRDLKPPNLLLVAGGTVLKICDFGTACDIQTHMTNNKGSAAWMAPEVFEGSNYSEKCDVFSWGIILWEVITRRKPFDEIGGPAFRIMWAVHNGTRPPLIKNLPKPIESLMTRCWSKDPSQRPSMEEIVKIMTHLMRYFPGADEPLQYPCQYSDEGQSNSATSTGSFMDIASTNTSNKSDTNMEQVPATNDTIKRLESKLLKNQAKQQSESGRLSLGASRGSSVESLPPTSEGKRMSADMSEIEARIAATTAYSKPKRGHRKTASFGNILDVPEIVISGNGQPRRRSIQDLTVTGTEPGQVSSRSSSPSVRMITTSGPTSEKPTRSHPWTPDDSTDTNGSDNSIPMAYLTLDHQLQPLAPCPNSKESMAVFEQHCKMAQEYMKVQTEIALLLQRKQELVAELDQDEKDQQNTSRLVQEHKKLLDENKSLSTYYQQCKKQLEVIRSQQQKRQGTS", "format": "binding", "details": "kinase TAK1; compound concentration 10 µM", "from_the_text": "(§1) We assessed the selectivity of members of this scaffold using the KINOMEscan methodology across a near comprehensive panel of 442 kinases [[18,27]]."}, "[2]": {"target": "T2, panel of 442 kinases (Homo sapiens, UniProt P45983)", "T2 construct": "purchased KINOMEscan", "T2 sequence (P45983 whole entry)": "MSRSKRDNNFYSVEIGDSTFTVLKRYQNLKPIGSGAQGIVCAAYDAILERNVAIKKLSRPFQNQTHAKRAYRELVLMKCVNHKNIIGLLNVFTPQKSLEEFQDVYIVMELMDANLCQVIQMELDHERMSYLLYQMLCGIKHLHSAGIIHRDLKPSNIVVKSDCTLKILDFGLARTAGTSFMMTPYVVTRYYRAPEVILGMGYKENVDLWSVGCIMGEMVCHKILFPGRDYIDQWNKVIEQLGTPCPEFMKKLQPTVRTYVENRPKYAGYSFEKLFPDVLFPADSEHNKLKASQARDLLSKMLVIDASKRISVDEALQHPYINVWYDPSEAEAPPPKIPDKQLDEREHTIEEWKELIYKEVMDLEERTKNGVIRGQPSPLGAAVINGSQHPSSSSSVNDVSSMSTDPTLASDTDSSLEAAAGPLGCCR", "format": "binding", "details": "Compound Concentration 10 µM", "from_the_text": "as §1"}},
  "data": [
    {"compound": "COc1cc(C(=O)N2CCC(N3CCN(C)CC3)CC2)ccc1Nc1ncc2c(n1)N1CCc3cccc(c31)C(=O)N2C", "note": "[Compound 24]", "values": [
      {"measurement": "% Ctrl, TAK1", "setting": "[1]", "value": 100, "unit": "% Ctrl"},
      {"measurement": "KINOMEscan: JNK1", "setting": "[2]", "value": 63}
    ]},
    {"compound": "CCOc1cc(C(=O)N2CCC(N3CCN(C)CC3)CC2)ccc1Nc1ncc2c(n1)N(C1CCCC1)c1ccccc1C(=O)N2C", "note": "[Compound 26]", "values": [
      {"measurement": "% Ctrl, TAK1", "setting": "[1]", "value": 100, "unit": "% Ctrl"},
      {"measurement": "KINOMEscan: JNK1", "setting": "[2]", "value": 76}
    ]},
    {"compound": "COc1cc(C(=O)N2CCC(N3CCN(C)CC3)CC2)ccc1Nc1ncc2c(n1)N(C1CCCC1)c1ccccc1C(=O)N2C", "note": "[Compound 25, 11-cyclopentyl-2-((2-methoxy-4-(4-(4-methylpiperazin-1-yl)piperidine-1-carbonyl)phenyl)amino)-5-methyl-5H-benzo[e]pyrimido[5,4-b][1,4]diazepin-6(11H)-one]", "values": [
      {"measurement": "% Ctrl, TAK1", "setting": "[1]", "value": 100, "unit": "% Ctrl"},
      {"measurement": "KINOMEscan: JNK1", "setting": "[2]", "value": 38}
    ]},
    {"compound": "COc1cc(C(=O)N2CCC(N3CCN(C)CC3)CC2)ccc1Nc1ncc2c(n1)N(C)c1ccccc1C(=O)N2C", "note": "[15 (LRRK2-IN-1)]", "values": [
      {"measurement": "% Ctrl, TAK1", "setting": "[1]", "value": 98, "unit": "% Ctrl"},
      {"measurement": "KINOMEscan: JNK1", "setting": "[2]", "value": 95}
    ]}
  ]
}
